One experiment relates to PC-3. The experiment in a line: Single dose cell viability assay, PC-3. It counts as cell-based. The settings on record: PC-3 (Prostate), single dose 25 μM. The procedure:
(§1) Lead abbapolin compounds were tested in multiple cancer cell lines, including non-small cell lung cancer (NSCLC) cells, melanoma cells, colon cancer cells, central nervous system (CNS) cancer cells, prostate cancer cells, renal cancer cells, and breast cancer cells. Each of these cancer cells lines were sensitive to the lead abbapolin compounds in a cell viability assay, including 6184 (Table 3), 6277 (Table 4), 6279 (Table 5), 6355 (Table 6), 6359 (Table 7), 6369 (Table 8), and 6421 (Table 9).

In a further experiment the test system is K-562. The experiment in a line: Single dose cell viability assay, K-562. It counts as cell-based. The settings on record: K-562 (Leukemia), single dose 25 μM. How it is done: as §1
Another experiment deals with KM12. The experiment in a line: Single dose cell viability assay, KM12. The format is cell-based. The settings on record: KM12 (Colon), single dose 25 μM. The procedure: as §1
The test system of a further experiment is HOP-92. The experiment in a line: Single dose cell viability assay, HOP-92. The format is cell-based. The settings on record: HOP-92 (NSCLC), single dose 25 μM. How it is done: as §1
A further experiment has as its system NCI-H522. The experiment in a line: Single dose cell viability assay, NCI-H522. The format is cell-based. The settings on record: NCI-H522 (NSCLC), single dose 25 μM. How it is done:
as §1

The subject of the next experiment is CCRF-CEM. The experiment in a line: Single dose cell viability assay, CCRF-CEM. It counts as cell-based. The settings on record: CCRF-CEM (Leukemia), single dose 25 μM. How it is done: as §1
The test system of the next experiment is ACHN. The experiment in a line: Single dose cell viability assay, ACHN. The format is cell-based. The following applies: ACHN (Renal), single dose 25 μM. The procedure: as §1
The subject of a further experiment is U251. The experiment in a line: Single dose cell viability assay, U251. It counts as cell-based. The following applies: U251 (CNS), single dose 25 μM. The procedure:
as §1

The target in the next experiment is T1, PLK1 PBD (367-603) (Homo sapiens, UniProt P53350).
T1 construct: PLK1 PBD (367-603) and PLK3 PBD (335-646) proteins were obtained from BPS Biosciences Inc; purchased BPS Biosciences Inc. (San Diego, CA)
T1 sequence (P53350 367-603): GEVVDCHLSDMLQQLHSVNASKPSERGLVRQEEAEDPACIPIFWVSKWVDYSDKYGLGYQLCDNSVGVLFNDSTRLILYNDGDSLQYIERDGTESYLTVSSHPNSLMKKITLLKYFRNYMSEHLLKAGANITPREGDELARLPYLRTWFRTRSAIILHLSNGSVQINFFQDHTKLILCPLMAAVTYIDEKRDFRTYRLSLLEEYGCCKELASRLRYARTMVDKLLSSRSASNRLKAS
The experiment in a line: Fluorescence polarization assay, PLK1 PBD. The settings on record: fluorescence polarization; read-out: PLK1 PBD IC50. It counts as binding. How it is done:
(§2) Materials were dissolved in DMSO (10 mM) and diluted from 10 nM to 600 μM (maximum of 6% DMSO tolerance in the assay). PLK1 PBD (367-603) and PLK3 PBD (335-646) proteins were obtained from BPS Biosciences Inc. (San Diego, CA); 17 ng PLK1 and 156 ng PLK3 were used per reaction. The fluorescein-tracer phospho-peptides (MAGPMQS[pT]PLNGAKK (SEQ ID NO: 1) for PLK1, and GPLATS[pT]PKNG (SEQ ID NO: 2) for PLK3) were used at a final concentration of 10 nM. Incubation was carried out at room temperature for 45 minutes. Fluorescence was measured using a DTX 880 plate reader and Multimode Analysis software (Beckman Coulter, Brea, CA). The polarization values in millipolarization (mP) units were measured at an excitation wavelength of 488 nm and an emission wavelength of 535 nm. Each data point was performed in triplicate for every experiment, and experiments were performed at least three times. An IC50 value for each compound was calculated from linear regression analysis of the plots.

The test system of another experiment is SNB-19. The experiment in a line: Single dose cell viability assay, SNB-19. The format is cell-based. The following applies: SNB-19 (CNS), single dose 25 μM. How it is done: as §1
A further experiment deals with HCT-15. The experiment in a line: Single dose cell viability assay, HCT-15. It counts as cell-based. The following applies: HCT-15 (Colon), single dose 25 μM. How it is done: as §1
The test system of the next experiment is SF-295. The experiment in a line: Single dose cell viability assay, SF-295. The following applies: SF-295 (CNS), single dose 25 μM. The format is cell-based. The procedure:
as §1

Another experiment relates to RPMI-8226. The experiment in a line: Single dose cell viability assay, RPMI-8226. The format is cell-based. The settings on record: RPMI-8226 (Leukemia), single dose 25 μM. The procedure:
as §1

The subject of the next experiment is UO-31. The experiment in a line: Single dose cell viability assay, UO-31. It counts as cell-based. The following applies: UO-31 (Renal), single dose 25 μM. The procedure:
as §1

Another experiment relates to SK-MEL-2. The experiment in a line: Single dose cell viability assay, SK-MEL-2. The format is cell-based. The following applies: SK-MEL-2 (Melanoma), single dose 25 μM. The procedure: as §1
Another experiment concerns NCI-H23. The experiment in a line: Single dose cell viability assay, NCI-H23. The settings on record: NCI-H23 (NSCLC), single dose 25 μM. It counts as cell-based. The procedure:
as §1

Another experiment relates to SK-MEL-5. The experiment in a line: Single dose cell viability assay, SK-MEL-5. It counts as cell-based. The settings on record: SK-MEL-5 (Melanoma), single dose 25 μM. The procedure:
as §1

Another experiment concerns T-47D. The experiment in a line: Single dose cell viability assay, T-47D. The following applies: T-47D (Breast), single dose 25 μM. It counts as cell-based. How it is done:
as §1

In another experiment the test system is NCI-H226. The experiment in a line: Single dose cell viability assay, NCI-H226. The format is cell-based. The settings on record: NCI-H226 (NSCLC), single dose 25 μM. How it is done: as §1
The subject of the next experiment is EKVX. The experiment in a line: Single dose cell viability assay, EKVX. It counts as cell-based. The settings on record: EKVX (NSCLC), single dose 25 μM. How it is done: as §1
The test system of another experiment is UACC-62. The experiment in a line: Single dose cell viability assay, UACC-62. The following applies: UACC-62 (Melanoma), single dose 25 μM. It counts as cell-based. The procedure: as §1
A further experiment deals with MCF7. The experiment in a line: Single dose cell viability assay, MCF7. The format is cell-based. The following applies: MCF7 (Breast), single dose 25 μM. How it is done: as §1
The test system of another experiment is MOLT-4. The experiment in a line: Single dose cell viability assay, MOLT-4. The settings on record: MOLT-4 (Leukemia), single dose 25 μM. The format is cell-based. The procedure:
as §1

The next experiment concerns MDA-MB-468. The experiment in a line: Single dose cell viability assay, MDA-MB-468. It counts as cell-based. The following applies: MDA-MB-468 (Breast), single dose 25 μM. The procedure:
as §1

The test system of another experiment is HL-60(TB). The experiment in a line: Single dose cell viability assay, HL-60(TB). The format is cell-based. The settings on record: HL-60(TB) (Leukemia), single dose 25 μM. The procedure: as §1
For a further experiment, the system named is SR. The experiment in a line: Single dose cell viability assay, SR. It counts as cell-based. The settings on record: SR (Leukemia), single dose 25 μM. How it is done:
as §1

A further experiment concerns the target PLK1 (Homo sapiens, UniProt P53350). The experiment in a line: PLK1 degradation in SH-SY5Y cells. It counts as cell-based. Also noted: endogenous in cells. The procedure:
(§3) Abbapolin compounds activity was evaluated in neuroblastoma cells. […] Further, abbapolins induced PLK1 degradation in SH-SY5Y cells (FIG. 14-16).

The test system of the next experiment is HCT-116. The experiment in a line: Single dose cell viability assay, HCT-116. The settings on record: HCT-116 (Colon), single dose 25 μM. The format is cell-based. The procedure: as §1
In another experiment the test system is NCI-H460. The experiment in a line: Single dose cell viability assay, NCI-H460. It counts as cell-based. The settings on record: NCI-H460 (NSCLC), single dose 25 μM. How it is done: as §1
A further experiment deals with T2, PLK3 PBD (335-646) (Homo sapiens, UniProt Q9H4B4).
T2 construct: PLK1 PBD (367-603) and PLK3 PBD (335-646) proteins were obtained from BPS Biosciences Inc; purchased BPS Biosciences Inc. (San Diego, CA)
T2 sequence (Q9H4B4 335-646): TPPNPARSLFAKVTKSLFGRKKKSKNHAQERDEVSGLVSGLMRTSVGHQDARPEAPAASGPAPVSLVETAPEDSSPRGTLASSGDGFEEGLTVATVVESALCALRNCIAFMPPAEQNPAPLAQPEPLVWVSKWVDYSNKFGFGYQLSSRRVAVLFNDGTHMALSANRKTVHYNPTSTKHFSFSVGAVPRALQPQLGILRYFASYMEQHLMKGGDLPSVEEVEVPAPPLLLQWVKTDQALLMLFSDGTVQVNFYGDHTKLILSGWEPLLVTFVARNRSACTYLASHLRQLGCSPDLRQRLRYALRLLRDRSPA
The experiment in a line: Fluorescence polarization assay, PLK3 PBD. It counts as binding. How it is done: as §2

Experiment [1] concerns SH-SY5Y neuroblastoma cells overexpressing PLK1. The experiment in a line: Cell viability assay in neuroblastoma cells. It counts as cell-based. The following applies: Homo sapiens, SH-SY5Y. The procedure: as §3
In a further experiment the test system is LOX IMVI. The experiment in a line: Single dose cell viability assay, LOX IMVI. The format is cell-based. The settings on record: single dose 25 μM, 48 hours. The procedure:
as §1

The test system of the next experiment is A549/ATCC. The experiment in a line: Single dose cell viability assay, A549/ATCC. It counts as cell-based. The settings on record: A549/ATCC (NSCLC), single dose 25 μM. The procedure: as §1

Structures are written as SMILES.

Chain of PLK1 (P53350 whole entry): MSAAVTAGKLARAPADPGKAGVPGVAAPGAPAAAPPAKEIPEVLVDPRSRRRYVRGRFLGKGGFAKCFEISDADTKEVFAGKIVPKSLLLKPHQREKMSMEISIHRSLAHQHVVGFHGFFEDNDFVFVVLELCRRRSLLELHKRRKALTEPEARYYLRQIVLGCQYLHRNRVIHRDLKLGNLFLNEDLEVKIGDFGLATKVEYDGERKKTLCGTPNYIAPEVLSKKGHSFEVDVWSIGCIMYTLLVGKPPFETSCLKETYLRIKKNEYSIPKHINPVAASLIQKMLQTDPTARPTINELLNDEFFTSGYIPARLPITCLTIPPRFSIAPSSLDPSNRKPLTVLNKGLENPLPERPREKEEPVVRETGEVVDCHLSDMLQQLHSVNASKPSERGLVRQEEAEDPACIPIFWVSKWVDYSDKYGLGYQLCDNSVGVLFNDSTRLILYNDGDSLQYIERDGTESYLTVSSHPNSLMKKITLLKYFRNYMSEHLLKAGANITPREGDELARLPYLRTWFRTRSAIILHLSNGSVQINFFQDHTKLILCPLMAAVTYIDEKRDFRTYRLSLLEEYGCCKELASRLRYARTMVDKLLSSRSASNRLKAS

As a reminder, the IC50 is the concentration that gives 50% inhibition. In the case of `CCCCCCCCc1ccc(C(=O)Nc2ccc(C)cc2C(=O)O)cc1O` [compound 6279], the “Cells Remaining (%)” value was determined as 58.63% in the experiment on PC-3; 49.7% in the experiment with K-562; 52.19% in the experiment with KM12; 57.85% with HOP-92; 59.89% in the experiment on NCI-H522; 55.59% in the experiment on CCRF-CEM. In addition, the “Cells Remaining (%)” value in the experiment with ACHN worked out at 61.79%; in the experiment with U251, 45.14%; in the experiment with SNB-19, 43.49%; in the experiment with HCT-15, 56.83%; in the experiment on SF-295 it was 59.38%; in the experiment on RPMI-8226, 63.91%. Further, the IC50 on PLK1 PBD (367-603) amounted to 31.8 µM.
Regarding `CCCCCCCCc1ccc(C(=O)Nc2ccccc2O)cc1` [compound 6421], the “Cells Remaining (%)” value came out at 53.71% in the experiment on K-562; 59.4% in the experiment on UO-31; 38.46% in the experiment on SK-MEL-2; 70.52% with NCI-H522; 62.07% with NCI-H23; 37.43% with CCRF-CEM. For the same molecule, the “Cells Remaining (%)” value in the experiment on SK-MEL-5 is on record as 70.42%; in the experiment on T-47D, 27.32%; in the experiment with NCI-H226, 66.21%; with EKVX, 52.89%; in the experiment on UACC-62, 69.99%; in the experiment with MCF7, 35.21%. The “Cells Remaining (%)” value is given as 58.2% in the experiment on MOLT-4, 45.03% with MDA-MB-468, 48.98% in the experiment with RPMI-8226 and 69.66% with HL-60(TB).
One may read the inhibition as how much of the control response was suppressed. Read a low inhibition as little suppression. Take `CCCCCCCCc1cccc(CC(=O)Nc2ccc(C)cc2C(=O)O)c1` [compound 6277]: the “Cells Remaining (%)” value in the experiment on K-562 came to 28.94%; in the experiment with SR, 31.08%; in the experiment on CCRF-CEM, 26.74%; in the experiment with HCT-116 it was 28.14%; in the experiment with NCI-H460, 20.45%; in the experiment with HCT-15, 13.2%. Also, the “Cells Remaining (%)” value with MOLT-4 was 17.93%; in the experiment on LOX IMVI (LOX IMVI (Melanoma)) it was 3.4%; in the experiment with RPMI-8226 it was 25.43%; in the experiment with A549/ATCC, 31.38%. The PLK1 degradation entry at PLK1 is “degradation of PLK1”. Further, the values for the IC50 (against PLK3 PBD (335-646); on PLK1 PBD (367-603); in experiment [1]) were 29.4 µM, 19.7 µM and 5.25 ± 0.5 µM, respectively. Moreover, in the experiment on LOX IMVI (Homo sapiens, LOX IMVI, from cells remaining), the inhibition at 25 µM worked out at 96.4%.

For the origin of these results see patent publication US20230338316A1, “ABBAPOLINS AS INHIBITORS AND DEGRADERS OF POLO-LIKE KINASES” (UNIVERSITY OF SOUTH CAROLINA, priority 2022, published 2023).
